Data: patent publication US10730771B2, “Method for operating reverse-osmosis membrane treatment system” (priority 2015, dated 2020)

Tested on: microorganisms adhered on the surfaces of test pieces
Assay: Test example I: adhesion of slime (microorganisms, as ATP) to SUS316L test pieces in flow columns
Assay type: cell-based
Conditions: 13 days; for Amount of microorganisms adhered: 1.7 L/min, no treatment 121
Protocol: A test for confirming the capabilities of a combined-chlorine slime-control agent and a stabilized-bromine slime-control agent to reduce the adhesion of slime to the energy recovery device was conducted.
Water produced by treating wastewater from Kurita Global Technology Center of Kurita Water Industries Ltd. was used as test water.
In the testing apparatus, the test water fed from a pipe 20 is split into pipes 21, 22, and 23 and passed through columns 31, 32, and 33 provided with test pieces 31a, 32a, and 33a (3 cm×5 cm test pieces made of SUS316L) fixed to the respective inner walls. FI1, FI2, and FI3 represent a flow meter. V1, V2, and V3 represent a valve.
The test water was passed into the columns 31 to 33 through the branch pipes 21 to 23 at a flow rate of 1.7 L/min for 13 days. While the test water was passed through the testing apparatus, the chemical-1 was injected into the pipe 22 such that the total chlorine concentration measured by the DPD method produced by HACH was 1.0 mg/L (Test No. 2), and the chemical-2 was injected into the pipe 23 such that the total chlorine concentration measured by the same method as in Test No. 2 was 0.8 mg/L (Test No. 3). No chemical (no treatment) was added to the pipe 21 (Test No. 1).
After the test water had been passed through the testing apparatus for 13 days, the test pieces 31a to 33a were removed, and the microorganisms adhered on the surfaces thereof were sampled. The amount of microorganisms adhered on the surface of each of the test pieces was measured with a “Lumitester C-110” produced by Kikkoman Biochemifa Company. The amount of microorganisms was measured as ATP and expressed in the unit of pg/cm^2.

| Molecule | adhesion of microorganisms compared with no treatment (0.8 mg/L as total chlorine) | Amount of microorganisms adhered (Test No. 3, 0.8 mg/L as total chlorine) [ATP pg/cm^2] | adhesion of microorganisms compared with no treatment (1.0 mg/L as total chlorine) | Amount of microorganisms adhered (Test No. 2, 1.0 mg/L as total chlorine) [ATP pg/cm^2] |
| --- | --- | --- | --- | --- |
| bromosulfamate [Chemical-2] | reduced the adhesion of microorganisms | 72 |  |  |
| O=S(=O)([O-])NCl.[Na+] [NHClSO3Na, sodium monochlorosulfamate] |  |  | reduced the adhesion of microorganisms | 49 |
